Here are results for eight molecules from patent US20020042400A1, “Novel alicyclic imidazoles as H3 agents” (priority 2000, published 2002).

The target of assay [1] is T1, Histamine H3 receptor (Rattus norvegicus, UniProt Q9QYN8). The experiment in a line: Histamine H3 receptor competition binding with [^3H]NAMHA in rat cerebral cortical membranes. The method, then:
Histamine H3 receptor affinity was determined in rat cerebral cortical membranes with [^3H]NAMHA as previously described (Tedford et al., 1995). Animals were euthanized by rapid decapitation and cerebral cortical tissues were harvested and frozen on dry ice. Cerebral cortical membranes were prepared in 50 mM sodium-phosphate buffered saline (pH 7.5 at 4° C.) containing: EDTA (10 mM), phenylmethylsulfonyl fluoride (0.1 mM), chymostatin and leupeptin (each 0.2 mg/50 mL). The final membrane pellets were resuspended in water and stored frozen at −80° C. prior to use. Protein concentrations were determined using the Coomassie Plus Protein Assay (Pierce, Rockford Ill.).
Competition binding was carried out in a total volume of 0.2 mL of 50 mM sodium-phosphate buffer (pH 7.4) using ˜1 nM [^3H]NAMHA ([^3H]—N^α-methylhistamine, available from NEN Research Products of Boston, Mass.) and 0.003 to […] concentrations of the test compounds. Non-specific binding was determined using 10 μM thioperamide. Samples were incubated for 40 minutes at 25° C. and subsequently filtered through Whatman GF/C glass fiber filters pre-soaked in binding buffer with 0.3% polyethyleneimine, using an Inotech cell harvester (Inotech Biosystems International, Lansing Mich.). The filters were rapidly washed three times with Tris-NaCl buffer (25 and 145 mM, respectively, pH 7.4, 4° C.). Samples were quantitated using Ecolume scintillation cocktail (ICN Biomedicals; Costa Mesa Calif.) and a Packard model 1900TR liquid scintillation analyzer (Packard Instrument Co., Downers Grove Ill.). IC50 values were extrapolated from a plot of receptor occupancy (i.e. % bound) vs. log [competitor].

Assay [2] addresses T1, Histamine H3 receptor. Conditions: radioligand Kd used in the Ki equation; read-out: Kd for [^3H]NAMHA; cited from earlier work.
Where [3] appears, read: rat cerebral cortical membranes, ~1 nM [^3H]NAMHA, 40 minutes at 25° C., Ki=IC50/(1+([ligand]/[Kd]), read-out: Ki.

What is called Ki is the equilibrium dissociation constant of an inhibitor or competing ligand from its target. As usually defined, the Kd is a measure of binding affinity in units of concentration.

Counter-ions that a name gives are not always drawn. Like-named read-outs stand apart in the source and are kept apart here.

T1 sequence (Q9QYN8 whole entry): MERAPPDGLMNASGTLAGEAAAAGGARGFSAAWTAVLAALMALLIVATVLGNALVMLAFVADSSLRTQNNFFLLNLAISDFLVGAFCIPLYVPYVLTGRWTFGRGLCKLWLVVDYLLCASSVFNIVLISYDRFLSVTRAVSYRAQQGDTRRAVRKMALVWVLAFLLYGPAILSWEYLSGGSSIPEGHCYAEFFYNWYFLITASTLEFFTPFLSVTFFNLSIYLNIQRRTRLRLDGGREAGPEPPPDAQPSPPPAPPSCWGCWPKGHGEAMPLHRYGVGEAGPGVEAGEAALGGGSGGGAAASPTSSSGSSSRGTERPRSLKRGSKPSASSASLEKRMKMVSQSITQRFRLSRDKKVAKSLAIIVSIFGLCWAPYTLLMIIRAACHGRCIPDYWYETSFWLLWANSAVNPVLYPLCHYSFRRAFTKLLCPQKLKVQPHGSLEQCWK

In the case of `N#C[C@@H]1C[C@H]1c1c[nH]cn1` (relative stereo) [Example 1, 4-(trans-2-cyano-cyclopropyl) Imidazole Trifluoroacetic Acid Salt], the Ki at Histamine H3 receptor [1] (setting [3]) worked out at 20 nM.

Take `NC(=O)[C@@H]1C[C@H]1c1c[nH]cn1` (relative stereo) [Example 2, 4-(trans-2-aminocarbonyl-cyclopropyl) Imidazole Trifluoroacetic Acid Salt]: the Ki on Histamine H3 receptor [1] (setting [3]) turned out to be 127 nM.

For the molecule `N=C(N)[C@@H]1C[C@H]1c1c[nH]cn1` (relative stereo) [Example 3, 4-(trans-2-amidino-cyclopropyl) Imidazole Di-trifluoroacetic Acid Salt], at Histamine H3 receptor [1] (setting [3]), the Ki was 6.7 nM.

At Histamine H3 receptor [1], `NC[C@@H]1C[C@H]1c1c[nH]cn1` (relative stereo) [Example 4, 4-(trans-2-aminomethyl-cyclopropyl) Imidazole Di-hydrochloric Acid Salt] yielded a Ki of 4.5 nM.

For `OC[C@@H]1C[C@H]1c1c[nH]cn1` (relative stereo) [Example 6, 4-(trans-2-hydroxymethyl-cyclopropyl) Imidazole Trifluoroacetic Acid Salt], at Histamine H3 receptor [1] (setting [3]), the Ki stood at 263 nM.

Take `CNC(=N)[C@@H]1C[C@H]1c1c[nH]cn1` (relative stereo) [Example 7, 4-(trans-2-N-methylamidino-cyclopropyl) Imidazole Di-hydrochloric Acid Salt]: on Histamine H3 receptor [1] (setting [3]), the Ki is 114 nM.

Consider `O/N=C/C1CC1c1c[nH]cn1` (stereo not drawn) [Example 5, 4-(trans-2-N-hydroxyimino-cyclopropyl) Imidazole], for which the Ki on Histamine H3 receptor [1] (setting [3]) stood at 23 nM.

As to `CNCCc1cnc[nH]1` [[^3H]NAMHA, [^3H]—N^α-methylhistamine], at Histamine H3 receptor [2], the Kd was 0.4 nM.
